Laboratory results as given in patent US8632749B2, “Two photon tracer, method for the preparation thereof and the use thereof in screening anticancer agents” (SNU R&DB Foundation, priority 2009, dated 2014).
Like-named read-outs stand apart in the source and are kept apart here.

Assays:
[1] = One-photon absorption/emission spectra and fluorescence quantum yield; type: physicochemical; settings: for Φ, fluorescence quantum yield: ±15%; for pH sensitivity of fluorescence: biologically relevant pH range
Procedure: Absorption spectra were recorded on a Hewlett-Packard 8453 diode array spectrophotometer, and fluorescence spectra were obtained with Amico-Bowman series 2 luminescence spectrometer with a 1-cm standard quartz cell. The fluorescence quantum yield was determined by using Coumarin 307 and Rhodamine B as the reference.

[2] = Measurement of two-photon cross section (TPEF method); type: physicochemical; settings: for Φδmax, two-photon action cross-section / λmax of the two-photon absorption spectrum / δmax, peak two-photon cross-section: PBS buffer; for δmax, peak two-photon cross-section: ±15%
Procedure: The two-photon cross section (δ) was determined using the femto second (fs) fluorescence measurement technique as described previously. AG1, AG2, Cy3-Glc-α, and 2-NBDG were dissolved in 30 mM PBC buffer (137 mM NaCl, 3 mM KCl, 10 mM Na2HPO4, 2 mM KH2PO4, pH 7.4) at a concentration of 5.0×10^−6 M and then the two-photon induced fluorescence intensity was measured at 740-940 nm by using fluorescein (8.0×10^−5 M, pH=11) as the reference, whose two-photon property has already been well characterized. The intensities of the two photon induced fluorescence spectra of the reference and sample emitted at the same excitation wavelength were determined.
The TPA cross section was calculated according to Eq. 1,
The results are shown in FIG. 1 and the above-described Table 1.

[3] = test system: A549 cells; assay: Tracer uptake by A549 cells, TPM imaging (optimum concentration); type: cell-based; settings: for Cell death in A549 cells: 100 μM probe, 30 min; for Uptake rate (time) in A549 cells: A549 cells labeled with tracer
Procedure: (§1) A549 human lung carcinoma cells, HeLa human cervical carcinoma cells, NIH/3T3 murine fibroblast cells, and HEK293 human embryonic kidney cells were obtained from American Type Culture Collection (ATCC, Manassas, Va., USA). A549 cells were cultured in RPMI 1640 (WelGene) supplemented with heat-inactivated 10% FBS (WelGene), penicillin (100 units/mL), and streptomycin (100 μg/mL).
For labeling, the growth medium was removed and replaced with serum-free RPMI 1640 (without D-glucose) (United Search Partners, Austin, Tex., USA).
The cells were treated and incubated with the required concentration of a tracker at 37° C. for 10 min.
Thereafter, the cells were washed three times with phosphate buffered saline (PBS; Gibco) and then imaged.
(§2) For comparison of the relative uptake of AG1 and AG2 per unit cell, the TPEF intensities from regions of interest were chosen without bias from among 40-60 cells as determined by the photomultiplier tube (PMT) and the data were digitalized using Histogram (a program for data analysis).
In determine the optimum concentration for the uptake experiment, TPM images of A549 cells labeled for 30 min with 6, 12.5, 25, 50, and 100 μM of AG1 and AG2 were compared. The image appeared brighter as the probe concentration was increased up to 50 μM; however, at higher concentrations than this, cell death was observed.
Moreover, the uptake rate was faster (600 vs 800 s) and the TPM image was brighter when the cells were labeled with AG2 than when they were treated with AG1 (FIG. 3). Therefore, 50 μM of AG2 was used for the uptake experiments.

[4] = test system: A549 cells; assay: Effect of anticancer agents on AG2 uptake by A549 cells
[5] = from The Handbook (Molecular Probes); cited from earlier work
[6] = test system: A549 cells; assay: Viability of A549 cells with CCK-8 kit; type: cell-based, human; settings: 50 μM, 10 min
Procedure: FIG. 7: Viability of A549 cells in the presence of AG2 as measured by using CCK-8 kit. The cells were incubated with 50 μM AG2 for 10 min.
In order to confirm that the tracer couldn't affect the viability of A549 cells in the incubation condition, a CCK-8 kit (Cell Counting Kit-8, Dojindo, Japan) was used according to the manufacturer's protocol.

[7] = test system: A549, HeLa, HEK293 and NIH/3T3 cells; assay: Relative AG2 uptake by cancer and normal cell lines (TPM); type: cell-based; settings: A549, HeLa vs HEK293, NIH/3T3
Description: In order to assess whether AG2 is selectively taken up by cancer cells, the efficiencies of AG2 uptake by A549 (lung carcinoma cell line), HeLa (cervical cancer cell line), HEK293 (human embryonic kidney 293 cell line), and NIH/3T3 (murine fibroblast cell line) cells were compared. […] Therefore, AG2 can be used for visualizing glucose uptake in living cells by TPM, without subjecting the cells to glucose starvation.
as §1
NIH/3T3 cells, HeLa cells, and HEK293 cells were cultured in DMEM (WelGene) supplemented with heat-inactivated 10% FBS (WelGene), penicillin (100 units/mL), and streptomycin (100 μg/mL). All the cell lines were maintained in a humidified atmosphere of 5% CO2 and 95% air at 37° C. […]
as §2

[8] = test system: A549 cells; assay: Competition experiment for uptake pathway; type: cell-based, human; settings: for Reduction of AG2 fluorescence intensity in A549 cells: AG2 50 μM, 10 min
Procedure: To determine whether the intracellular uptake pathway of AG2 is relevant to that of D-glucose, a competition experiment was conducted.
To this end, A549 cells were incubated with AG2 (50 μM) for 10 min in the presence of 0, 10, and 50 mM D-glucose, and 50 mM L-glucose, and relative AG2 uptake was determined by TPM.

[9] = test system: Human colon cancer tissue and normal tissue; assay: TPM imaging of AG2 uptake in human colon normal and cancer tissue slices
Procedure: In the present invention, an additional assessment was made of the utility of AG2 in tissue imaging for the diagnosis of colon cancer. In this regard, the images of normal- and cancer-tissue slices from colon-cancer patients were employed. […] The tissues were incubated in artificial cerebrospinal fluid (ACSF) for 4 h at 37° C. in the absence and presence of taxol (50 μM), after which AG2 uptake was monitored with TPM by following the change in TPEF at a depth of 100 μm.
Human colon cancer tissue and normal tissue were obtained from colon cancer patients by conducting colonoscopic examinations and taking samples.
Normal tissues, cancerous tissue, and cancerous tissue containing 50 μM taxol were incubated in artificial cerebrospinal fluid (ACSF) bubbled with 95% O2 and 5% CO2 for 4 hrs at 37° C. The tissues were then washed three times with ACSF, transferred to glass-bottomed dishes (MatTek), added with 50 μM AG2, and observed by TPM.
To determine whether the relative uptake was affected by incubation in ACSF, the same experiment was conducted with normal tissue and colon cancerous tissue obtained immediately after the colonoscopic biopsy.

[10] = test system: A549 cells; settings: 0.049 µM

Molecule | λ(1)max, one-photon absorption maximum ([1]; DMF (ETN 0.386)) [nm] | λflmax, one-photon emission maximum ([1]; DMF (ETN 0.386)) [nm] | Φ, fluorescence quantum yield ([1]; DMF (ETN 0.386)) | λ(1)max, one-photon absorption maximum ([1]; Dioxane (ETN 0.164)) [nm] | λflmax, one-photon emission maximum ([1]; Dioxane (ETN 0.164)) [nm] | Φ, fluorescence quantum yield ([1]; Dioxane (ETN 0.164)) | λ(1)max, one-photon absorption maximum ([1]; EtOH (ETN 0.654)) [nm] | λflmax, one-photon emission maximum ([1]; EtOH (ETN 0.654)) [nm] | Φ, fluorescence quantum yield ([1]; EtOH (ETN 0.654)) | λ(1)max, one-photon absorption maximum ([1]; H2O (ETN 1.00)) [nm] | λflmax, one-photon emission maximum ([1]; H2O (ETN 1.00)) [nm] | Φ, fluorescence quantum yield ([1]; H2O (ETN 1.00)) | λ(1)max, one-photon absorption maximum ([1]; PBS buffer) [nm] | λflmax, one-photon emission maximum ([1]; PBS buffer) [nm] | Φ, fluorescence quantum yield ([1]; PBS buffer) | pH sensitivity of fluorescence [1] | Φδmax, two-photon action cross-section [2] [GM] | λmax of the two-photon absorption spectrum [2] [nm] | δmax, peak two-photon cross-section [2] [GM] | Cell death in A549 cells [3] | other results
CC(=O)c1ccc2cc(N(C)CC(=O)NCCOCCOCCNCCOC3OC(CO)C(O)C(O)C3O)ccc2c1 (centres unmarked) [AG1] | 366 | 451 | 1.00 | 360 | 434 | 0.59 | 364 | 479 | 1.00 | 373 | 501 | 0.90 | 373 | 501 | 0.90 | pH insensitive | 86 | 780 | 95 | some cell death was observed | Φδ value from TP action spectrum ([2]; at 780 nm): approximately 90 GM; Uptake rate (time) in A549 cells [3]: 800 s
COc1ccc(C[C@@H](O)c2cc(OC)c(OC)c(OC)c2)cc1O [Combrestastatin, combretastatin] | – | – | – | – | – | – | – | – | – | – | – | – | – | – | – | – | – | – | – | – | AG2 uptake by A549 ([4]; agent 2 μM, after 6 h): 70.2%; AG2 uptake by A549 ([4]; agent 2 μM, after 12 h): 53.2%
O=[N+]([O-])c1ccc(NC2C(O)OC(CO)C(O)C2O)c2nonc12 [2-NBDG, 2-[N-(7-nitrobenz-2-oxa-1,3-diazol-4-yl)-amino]-2-deoxy-D-glucose] | – | – | – | – | – | – | – | – | – | – | – | – | – | – | – | – | – | – | – | – | λ(1)max, one-photon absorption maximum [5]: 465 nm; λflmax, one-photon emission maximum [5]: 540 nm
CC(=O)c1ccc2cc(N(C)CC(=O)N3CCN(CCOC4OC(CO)C(O)C(O)C4O)CC3)ccc2c1 (centres unmarked) [AG2] | 369 | 449 | 1.00 | 362 | 425 | 0.72 | 370 | 480 | 0.97 | 375 | 501 | 0.56 | 375 | 501 | 0.56 | pH insensitive | 88 | 780 | 155 | some cell death was observed | Uptake rate (time) in A549 cells [3]: 600 s; Effect on viability of cells (CCK8 kit) [6]: negligible toxicity; Efficiency of AG2 uptake by cell lines [7]: most efficient in A549 and HeLa cells, followed by HEK293 and NIH/3T3 cells; Reduction of AG2 fluorescence intensity in A549 cells ([8]; medium with 10 mM D-glucose vs glucose-depleted medium): about 16%; Reduction of AG2 fluorescence intensity in A549 cells ([8]; medium with 50 mM D-glucose vs glucose-depleted medium): ~74%; AG2 fluorescence intensity in A549 cells ([8]; medium with 50 mM L-glucose): not affected; AG2 uptake by A549 cells ([8]; presence of 55 mM D-/L-alanine): not influenced; AG2 uptake in cancer tissue versus normal tissue ([9]; colon tissue slices, 50 μM AG2, depth 100 μm): much faster than in the normal tissue
CC(=O)O[C@H]1C(=O)[C@@]2(C)[C@H]([C@H](OC(=O)c3ccccc3)[C@]3(O)C[C@H](OC(=O)[C@H](O)[C@@H](NC(=O)c4ccccc4)c4ccccc4)C(C)=C1C3(C)C)[C@]1(OC(C)=O)CO[C@@H]1C[C@@H]2O [Taxol, taxol] | – | – | – | – | – | – | – | – | – | – | – | – | – | – | – | – | – | – | – | – | AG2 uptake of cancer tissue pretreated with agent ([9]; colon cancer tissue, agent 50 μM for 4 hrs in ACSF, depth 100 μm): much slower AG2 uptake than the untreated one; AG2 uptake by A549 ([10]; 6 h): 89.6%; AG2 uptake by A549 ([10]; 12 h): 69.5%; Cellular uptake of AG2 versus incubation time with agent ([4]; A549 cells incubated 1, 3, 6, 12, 24 h with agent): lower with longer incubation times; AG2 uptake by A549 ([4]; agent 49 nM (second line, r8), after 6 h): 96.7%; AG2 uptake by A549 ([4]; agent 49 nM (second line, r8), after 12 h): 81.8%; AG2 uptake by A549 ([4]; agent 9.8 μM, after 6 h): 69.5%; AG2 uptake by A549 ([4]; agent 9.8 μM, after 12 h): 50.7%
cyanine-3-linked O-1-glycosylated glucose [Cy3-Glc-α, reference compound] | – | – | – | – | – | – | – | – | – | – | – | – | 545 | 555 | 0.01 | – | – | – | – | – | –
